Assay results: US9486466B2, “Veliparib in combination with carboplatin for the treatment of triple negative breast cancer” (AbbVie Inc., priority 2013, dated 2016)

Test system: early-stage triple negative breast cancer
Assay: Phase 2 randomized open label study of veliparib and carboplatin with standard neoadjuvant chemotherapy; pathologic complete response
Type: in vivo, human
Description: Pathological Complete Response (pCR) is the absence of any residual invasive cancer on hematoxylin and eosin evaluation of the resected breast specimen and any resected lymph node tissue following completion of neoadjuvant systemic therapy.
This example is a Phase 2, interventional, randomized, open label study evaluating the safety and efficacy of veliparib and carboplatin administered concurrently with standard chemotherapy in subjects with early-stage triple negative breast cancer.
Patients received 50 mg po bid during the 12 weekly treatment cycles post-randomization and carboplatin: AUC 6 IV every three weeks for […] during the 12 weekly treatment cycles post-randomization with standard chemotherapy or alternatively standard chemotherapy alone. Standard chemotherapy was paclitaxel: 80 mg/m^2 IV during the 12 weekly treatment cycles post randomization; doxorubicin: 60 mg/m^2 IV after completion of the 12 weekly treatment cycles and prior to surgery for weeks 13-16; cyclophosphamide: 600 mg/m^2 IV after completion of the 12 weekly treatment cycles and prior to surgery for weeks 13-16.
Determine whether adding veliparib and carboplatin to standard neoadjuvant medications increases the probability of pathologic complete response (pCR) over standard neoadjuvant chemotherapy for triple negative breast cancer. […]

C[C@]1(c2nc3c(C(N)=O)cccc3[nH]2)CCCN1 [Veliparib arm, 2-[(2R)-2-methylpyrrolidin-2-yl]-1H-benzimidazole-4-carboxamide]
pCR % (patients with triple negative breast cancer, neoadjuvant therapy followed by surgery, veliparib arm: veliparib 50 mg po bid + carboplatin AUC 6 IV during the 12 weekly cycles, added to standard chemotherapy (paclitaxel, then doxorubicin/cyclophosphamide), control arm: standard chemotherapy alone): 56% (n = 39) | effect on number of women achieving pCR status (veliparib and carboplatin added to standard of care, neoadjuvant setting, early triple negative breast cancer): increases the number of women that achieve pCR status
